From the SangsterLogP compilation come the findings set out here.

Molecules are shown by their SMILES.

The compound `CC(=O)NC(Cc1ccc(Cl)cc1)C(=O)NCc1ccccc1` (centres undefined) displayed a logP of 3.72. In the case of `CC(=O)N(C)CCC(=O)NCc1ccccc1`, the logP turned out to be 1.12. `CCCCNC(=O)C(C)NC(C)=O` (centres undefined) showed a log partition coefficient (logP) of 0.55.

The compound `CC(C(=O)NCc1ccccc1)N(C)C(=O)OC(C)(C)C` (centres undefined) yielded a logP of 2.94. In turn, `CC(=O)NC(C)C(=O)NCCC(C)C` (centres undefined) registered a logP of 0.88. The compound `CC(=O)N(C)CC(=O)NCc1ccccc1` displayed a logP of 0.94. `O=C(NC(CCC1CCCCC1)C(=O)OCCC1CCCCC1)OCc1ccccc1` (centres undefined) showed a logP of 6.39. The compound `CNC(C)C(=O)NCc1ccco1` (centres undefined) returned a logP of -0.66.

The compound `CN[C@H](C)C(=O)NCc1ccc(F)cc1` displayed a logP of 1.51. Take `CCNC(C)C(=O)NCc1ccccc1` (centres undefined): the logP worked out at 1.71. Turning to `CC(=O)N1CSCC1C(=O)NCc1ccccc1` (centres undefined), the logP was 1.29.

In the case of `CC(=O)NC(C)C(=O)NCC(C)C` (centres undefined), the logP stood at 0.56.

`O=C(NC(O)C(=O)O)OCc1ccccc1` (centres undefined) displayed a logP of 1.63. `CC(=O)NCCC(=O)NCc1ccccc1` had a logP of 0.76. `CC(NC(=O)OCc1ccccc1)C(=O)OCc1ccccc1` (centres undefined) had a logP of 3.84. Compound `CC(=O)N(C)C(C)C(=O)NCc1ccccc1` (centres undefined) came in with a logP of 1.48. As to `CC(=O)N[C@@H](Cc1c[nH]c2ccccc12)C(=O)NCc1ccccc1`, the logP is 2.17. For the compound `CC(C(=O)NCc1ccccc1)N(C)C` (centres undefined), the logP stood at 1.73.

Turning to `CNCCC(=O)NCc1ccccc1`, the logP is 1.01. For `CNC(C)C(=O)NCc1cccnc1` (centres undefined), the logP was 0.05. As for `CN1CSCC1C(=O)NCc1ccccc1` (centres undefined), the logP is 1.85.

For the compound `CC(=O)NC(CCCNC(=N)N[N+](=O)[O-])C(=O)NCc1ccccc1` (centres undefined), the logP worked out at 0.45.

Take `CC(=O)N(C)C(C)C(=O)NCc1ccco1` (centres undefined): the logP is -0.55. In the case of `CC(=O)NC(C)(C)C(=O)NCc1ccccc1` it was 1.32; in that of `CC(=O)N1CCC[C@@H]1C(=O)NCc1ccccc1`, 1.46.

As to `CN[C@H](C)C(=O)NCc1ccc(OC)cc1`, the logP stood at 1.11. Turning to `CC(=O)NCCCC(=O)NCc1ccccc1`, the logP worked out at 1.01. For `CC(=O)NC(CC(C)C)C(=O)NCc1ccccc1` (centres undefined), the logP stood at 2.31. The compound `CC(NC(=O)OCc1ccccc1)C(=O)NCc1ccccc1` (centres undefined) had a logP of 3.52.
